Legend:
[1] = system: human and murine cell lines; experiment: Anti-glioma activity in vitro (Figure 1 b); format: cell-based
Method: The inventors seeded 5,000 or 10,000 cells, respectively, on day one, treated the next day in serum-free medium and incubated for up to 72 h. Subsequently, they measured cell viability using CellTiterBlue reagent (Promega, Madison, WI, US) according to manufacturer's instructions with a GloMax (Promega, Madison, Wl, US). The inventors normalized measurements to untreated cells. Cells were seeded the day before treatment. The inventors treated the cells in the indicated concentrations in serum-free medium for 24 h after which they changed the medium back to medium containing FCS, followed by a 7 to 21 day incubation time. The inventors used crystal violet (0.5% w/v) to stain colonies and analyzed the area coverage using the ImageJ software Plugln ColonyArea. Measurements were normalized to respective vehicle control wells.

[2] = system: LN229, LNZ308, GS-2 and GS-9 cells; experiment: 4x4 synergy map assay (ZIP synergy score), all four cell lines; format: cell-based; details: combined with AZD6738 (ATRi); across all four cell lines
Method: (§1) The inventors seeded 5,000 or 10,000 cells, respectively, on day one, treated the next day in serum-free medium and incubated for up to 72 h. Subsequently, they measured cell viability using CellTiterBlue reagent (Promega, Madison, WI, US) according to manufacturer's instructions with a GloMax (Promega, Madison, Wl, US). The inventors normalized measurements to untreated cells.
The inventors leveraged an acute cytotoxicity assay workflow to evaluate potential interaction partners for AZD6738 which were derived from transcriptomic, proteomic and genome-wide CRISPR/Cas9 genetic dependency analyses. In a 1×1/IC50×IC50 set-up, they treated LN229 and LNZ308 cells in serum free medium for 72 h. The inventors used the original Bliss Independence Criterion to evaluate synergism potential. For this, a predicted value for additivity, derived from the product of the two monotherapy settings, was compared to the actual measurement of the combined treatment of the two drugs. […] The inventors used the R package synergyfinder with zero interaction potential (ZIP) synergy scores calculated from 4x4 concentration matrices for each tested combination and the average across the plate; see He et al. (2018); Methods for High-throughput Drug Combination Screening and Synergy Scoring. […]

[3] = system: primary cultures TUE-PC1-6; experiment: Combination treatment in primary glioma cultures (Bliss independence Criterion); format: cell-based; details: plus AZD6738
Excerpt: Primary tumor tissue was obtained from fresh residual material upon resection at the Department of Neurosurgery, University Hospital Tübingen. The inventors cut the tissue in small pieces, washed it using Hanks Balanced Salt Solution (HBSS) (Gibco, Carlsbad, CA, US) and digested it by collagenase and dispase (Roche, Basel, CH). To remove any remaining erythrocytes, they used red blood cell lysis buffer (Sigma Aldrich, St. Louis, MO, US). The inventors then cultured the cells as GS cells in Neurobasal®-A medium. They first evaluated AZD6738 sensitivity of each primary culture and selected two concentrations. […] To evaluate combination treatment analyses, the inventors leveraged the Bliss independence Criterion.
as §1

LN229-GFP cells = experiment: Zebrafish embryo xenotransplant, tumor area; format: in vivo, wildtype zebrafish embryos; details: monotherapy, 48 h of treatment; not significant as compared to the DMSO control
Method: The inventors used zebrafish wildtype (wt) TE embryos younger than 5 days post-fertilization (dpf). […] Labelled cells were suspended in PBS at 2*10^5 cells/µL and approx. 1 nL cell suspension was injected into the midbrain region of 24 hpf embryos. The inventors incubated the embryos at 28°C for 1 h and afterwards divided them into treatment groups. Only successfully transplanted embryos were used for further experiments. Then, the inventors applied the treatments as indicated in the respective figures and incubated that for 48 h at 35°C. For evaluation of tumor size, they imaged embryos on a Nikon Stereomicroscope (SMZ18) with the NIS Element software. The inventors assessed the tumor surface areas using Imaris (version 9.2.0).

LN229 and LNZ308 cells = experiment: 1x1 (IC50xIC50) pre-selection screen, acute cytotoxicity assay, Bliss Independence Criterion; format: cell-based, human; details: combined with AZD6738, 1x1 (IC50xIC50), 72 h, serum free medium
Method: as §1
The inventors leveraged an acute cytotoxicity assay workflow to evaluate potential interaction partners for AZD6738 which were derived from transcriptomic, proteomic and genome-wide CRISPR/Cas9 genetic dependency analyses. In a 1×1/IC50×IC50 set-up, they treated LN229 and LNZ308 cells in serum free medium for 72 h. The inventors used the original Bliss Independence Criterion to evaluate synergism potential. For this, a predicted value for additivity, derived from the product of the two monotherapy settings, was compared to the actual measurement of the combined treatment of the two drugs. […] BMC Systems Biology 4: 50. Subsequently, the inventors subjected LN229, LNZ308, GS-2 and GS-9 cells to 4x4 synergy map assays again in an acute cytotoxicity assay workflow. The inventors used the R package synergyfinder with zero interaction potential (ZIP) synergy scores calculated from 4x4 concentration matrices for each tested combination and the average across the plate; see He et al. (2018); Methods for High-throughput Drug Combination Screening and Synergy Scoring. In Cancer Systems Biology: Methods and Protocols, von Stechow (ed) pp 351-398. New York, NY: Springer New York.

LN229 cells = experiment: 4x4 synergy map assay (ZIP synergy score); format: cell-based, human; details: combined with AZD6738 (ATRi)
Method: as §1
(§2) The inventors leveraged an acute cytotoxicity assay workflow to evaluate potential interaction partners for AZD6738 which were derived from transcriptomic, proteomic and genome-wide CRISPR/Cas9 genetic dependency analyses. […] The inventors used the original Bliss Independence Criterion to evaluate synergism potential. For this, a predicted value for additivity, derived from the product of the two monotherapy settings, was compared to the actual measurement of the combined treatment of the two drugs. […] BMC Systems Biology 4: 50. Subsequently, the inventors subjected LN229, LNZ308, GS-2 and GS-9 cells to 4x4 synergy map assays again in an acute cytotoxicity assay workflow. […] New York, NY: Springer New York.

LNZ308 = experiment: 4x4 synergy map assay (ZIP synergy score); format: cell-based, human; details: combined with AZD6738 (ATRi)
Method: as §1, §2

GS-2 cells = experiment: 4x4 synergy map assay (ZIP synergy score); format: cell-based; details: combined with AZD6738 (ATRi)
Method: as §1, §2

GS-9 = experiment: 4x4 synergy map assay (ZIP synergy score); format: cell-based; details: combined with AZD6738 (ATRi)
Method: as §1, §2

## CNCc1ccc(-c2cc(-c3nc(-c4ccc(S(=O)(=O)C(C)C)cc4)cnc3N)on2)cc1 [Berzosertib, berzosertib]
[1]
  anti-glioma activity in vitro: significant anti-glioma activity

## N.N.[Cl][Pt][Cl] [cisplatin, cis-diammine dichloridoplatin]
[2]
  ZIP synergy score (synergism signature): synergism signature
[3]; all six primary cultures
  combination efficacy (Bliss Independence Criterion): synergistic read-outs
LN229-GFP cells
  tumor area: modest decrease

## COc1cccc2c1C(=O)c1c(O)c3c(c(O)c1C2=O)C[C@@](O)(C(=O)CO)C[C@@H]3O[C@H]1C[C@H](N)[C@H](O)[C@H](C)O1 [doxorubicin]
LN229 and LNZ308 cells
  Bliss synergy scores: top scoring hits

## COc1cc([C@@H]2c3cc4c(cc3[C@@H](O[C@@H]3O[C@@H]5CO[C@@H](C)O[C@H]5[C@H](O)[C@H]3O)[C@H]3COC(=O)[C@H]23)OCO4)cc(OC)c1O [etoposide, Etoposide]
LN229 and LNZ308 cells
  Bliss synergy scores: top scoring hits

## CO[C@H]1C[C@@H]2CC[C@@H](C)[C@@](O)(O2)C(=O)C(=O)N2CCCC[C@H]2C(=O)O[C@H]([C@H](C)C[C@@H]2CC[C@@H](OCCO)[C@H](OC)C2)CC(=O)[C@H](C)/C=C(\C)[C@@H](O)[C@@H](OC)C(=O)[C@H](C)C[C@H](C)/C=C/C=C/C=C/1C [everolimus]
LN229 and LNZ308 cells
  Bliss synergy scores: top candidates

## COc1ccc2c(c1)[nH]c1c(C)nccc12 [harmine]
LN229 and LNZ308 cells
  Bliss synergy scores: top scoring hits

## NC(=O)NO [hydroxyurea, hydroxycarbamide]
LN229 and LNZ308 cells
  Bliss synergy scores: top scoring hits
[2]
  ZIP synergy score (synergism signature): synergism signature
[3]; TUE-PC1, TUE-PC4, TUE-PC5
  combination efficacy (Bliss Independence Criterion): not
[3]; TUE-PC2, TUE-PC3 and TUE-PC6
  combination efficacy (Bliss Independence Criterion): synergistic readout

## O=C(c1cc(Cc2n[nH]c(=O)c3ccccc23)ccc1F)N1CCN(C(=O)C2CC2)CC1 [olaparib, Olaparib]
LN229 and LNZ308 cells
  Bliss synergy scores: top scoring hits
LN229 cells
  ZIP synergy score (interaction with ATRi): synergistic interaction
LNZ308
  ZIP synergy score (interaction with ATRi): do not
GS-2 cells
  ZIP synergy score (interaction with ATRi): synergistic interaction
GS-9
  ZIP synergy score (interaction with ATRi): do not

## O=c1sn(-c2cccc3ccccc23)c(=O)n1Cc1ccccc1 [tideglusib, Tideglusib]
LN229 and LNZ308 cells
  Bliss synergy scores: top scoring hits

## O=C(CCCCCCC(=O)Nc1ccccc1)NO [vorinostat, suberoylanilide hydroxamic acid]
LN229 and LNZ308 cells
  Bliss synergy scores: top scoring hits

— patent EP4473972A1, “COMBINATIONS COMPRISING AN ATR INHIBITOR WITH SYNERGISTIC EFFECT AGAINST GLIOMAS” (Eberhard-Karls-Universität Tübingen, priority 2023, dated 2024)
